pIC50: −log10 of the molar value. Like-named read-outs stand apart in the source and are kept apart here.
Experiments:
Assay type in all cases: cell-based
human TLR9 = molecular target: T1, human TLR9 (Homo sapiens, UniProt Q9NR96); assay: TLR9 inhibition reporter assay (HEK-Blue cells, secreted embryonic alkaline phosphatase reporter)
T1 construct: host or cells: HEK-Blue cells (HEK293-derived reporter line)
T1 sequence (Q9NR96 26-1032): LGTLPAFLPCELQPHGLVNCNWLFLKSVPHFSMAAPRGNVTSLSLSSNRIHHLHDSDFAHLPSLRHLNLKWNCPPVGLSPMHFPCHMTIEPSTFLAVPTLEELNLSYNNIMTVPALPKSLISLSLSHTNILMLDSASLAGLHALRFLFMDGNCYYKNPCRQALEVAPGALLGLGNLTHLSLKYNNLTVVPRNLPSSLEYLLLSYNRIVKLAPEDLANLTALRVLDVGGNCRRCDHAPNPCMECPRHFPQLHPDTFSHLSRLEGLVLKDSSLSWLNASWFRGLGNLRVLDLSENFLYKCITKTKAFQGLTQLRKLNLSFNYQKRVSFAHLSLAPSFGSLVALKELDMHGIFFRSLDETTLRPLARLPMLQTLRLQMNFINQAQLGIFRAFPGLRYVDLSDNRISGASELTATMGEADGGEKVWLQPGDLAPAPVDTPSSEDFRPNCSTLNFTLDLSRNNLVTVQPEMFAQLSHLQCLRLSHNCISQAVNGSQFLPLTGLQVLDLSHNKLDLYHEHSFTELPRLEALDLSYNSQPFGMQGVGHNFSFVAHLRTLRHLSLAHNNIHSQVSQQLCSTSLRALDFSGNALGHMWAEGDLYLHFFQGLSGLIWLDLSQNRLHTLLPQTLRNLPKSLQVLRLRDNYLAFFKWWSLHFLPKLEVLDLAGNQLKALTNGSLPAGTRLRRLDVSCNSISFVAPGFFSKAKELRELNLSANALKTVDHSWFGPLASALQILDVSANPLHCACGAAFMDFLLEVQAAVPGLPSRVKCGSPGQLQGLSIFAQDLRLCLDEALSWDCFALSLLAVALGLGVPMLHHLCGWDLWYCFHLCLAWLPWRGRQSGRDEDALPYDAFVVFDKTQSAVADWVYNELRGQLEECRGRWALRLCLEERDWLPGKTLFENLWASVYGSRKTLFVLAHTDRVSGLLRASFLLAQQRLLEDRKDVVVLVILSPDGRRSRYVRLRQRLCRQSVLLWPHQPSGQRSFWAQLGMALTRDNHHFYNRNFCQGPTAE
In short: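 HEK-Blue cells expressing human TLR7, TLR8 or TLR9 with an NF-κB/AP-1-driven SEAP reporter were pretreated with compound (0.05 nM–50 μM final) for 30 min at room temperature. Agonists were gardiquimod 7.5 μM for TLR7, R848 15.9 μM for TLR8 and ODN2006 5 nM for TLR9. SEAP was read after 22 h at 37 °C, and inhibition was calculated relative to agonist-plus-DMSO and known-inhibitor controls.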

human TLR7 = molecular target: T2, human TLR7 (Homo sapiens, UniProt Q9NYK1); assay: TLR7 inhibition reporter assay (HEK-Blue cells, secreted embryonic alkaline phosphatase reporter); conditions: HEK-Blue cells overexpressing human TLR7, stimulated with gardiquimod 7.5 μM; read-out: TLR 7 IC50
T2 construct: host or cells: HEK-Blue cells (HEK293-derived reporter line)
T2 sequence (Q9NYK1 27-1049): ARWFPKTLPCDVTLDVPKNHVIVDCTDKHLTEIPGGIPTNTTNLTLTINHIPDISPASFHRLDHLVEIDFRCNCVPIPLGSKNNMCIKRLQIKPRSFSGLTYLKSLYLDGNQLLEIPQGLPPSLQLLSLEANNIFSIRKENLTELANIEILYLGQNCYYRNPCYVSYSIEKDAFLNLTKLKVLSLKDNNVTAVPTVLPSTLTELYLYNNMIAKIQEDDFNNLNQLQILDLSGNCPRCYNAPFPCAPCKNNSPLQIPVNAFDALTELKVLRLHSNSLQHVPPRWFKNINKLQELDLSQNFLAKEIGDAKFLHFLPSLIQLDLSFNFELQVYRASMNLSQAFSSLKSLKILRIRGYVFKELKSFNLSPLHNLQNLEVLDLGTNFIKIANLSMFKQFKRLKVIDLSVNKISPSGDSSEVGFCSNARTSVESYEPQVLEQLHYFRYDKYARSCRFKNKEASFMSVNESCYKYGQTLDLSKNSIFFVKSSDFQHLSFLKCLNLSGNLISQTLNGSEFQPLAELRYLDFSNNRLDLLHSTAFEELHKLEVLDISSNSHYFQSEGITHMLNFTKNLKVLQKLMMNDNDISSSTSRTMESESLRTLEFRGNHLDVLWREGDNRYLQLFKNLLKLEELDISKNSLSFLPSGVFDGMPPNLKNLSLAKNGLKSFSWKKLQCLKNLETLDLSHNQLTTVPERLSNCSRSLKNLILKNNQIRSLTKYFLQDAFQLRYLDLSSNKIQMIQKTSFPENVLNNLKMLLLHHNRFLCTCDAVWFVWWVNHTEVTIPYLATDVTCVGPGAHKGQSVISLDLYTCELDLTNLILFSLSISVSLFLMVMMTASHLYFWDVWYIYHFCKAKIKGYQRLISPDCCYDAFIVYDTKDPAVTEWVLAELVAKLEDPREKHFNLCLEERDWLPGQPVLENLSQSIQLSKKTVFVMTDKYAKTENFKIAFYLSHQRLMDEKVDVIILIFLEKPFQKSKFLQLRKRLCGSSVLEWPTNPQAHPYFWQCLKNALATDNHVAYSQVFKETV
Experimental: (§1) TLR7/8/9 Inhibition Reporter Assays
(§2) HEK-Blue™-cells (Invivogen) overexpressing human TLR7, TLR8 or TLR9 receptors were used for screening inhibitors of these receptors using an inducible SLAP (secreted embryonic alkaline phosphatase) reporter gene under the control of the […] minimal promoter fused to five NF-κB and AP-1-binding sites. Briefly, cells are seeded into Greiner 384 well plates (15000 cells per well for TLR7, 20,000 for TLR8 and 25,000 for TLR9) and then treated with test compounds in DMSO to yield a final dose response concentration range of 0.05 nM-50 μM. After a 30 minute compound pre-treatment at room temperature, the cells are then stimulated with a TLR7 ligand (gardiquimod at a final concentration of 7.5 μM), TLR8 ligand (R848 at a final concentration of 15.9 μM) or TLR9 ligand (ODN2006 at a final concentration of 5 nM) to activate NF-κB and AP-1 which induce the production of SLAP. After a 22 hour incubation at 37° C., […], SLAP levels are determined with the addition of HEK-Blue™ Detection reagent (Invivogen), a cell culture medium that allows for detection of SLAP, according to manufacturer's specifications. The percent inhibition is determined as the […] in the HEK-Blue signal present in wells treated with agonist plus DMSO alone compared to wells treated with a known inhibitor.

human TLR8 = molecular target: T3, human TLR8 (Homo sapiens, UniProt Q9NR97); assay: TLR8 inhibition reporter assay (HEK-Blue cells, secreted embryonic alkaline phosphatase reporter); conditions: HEK-Blue cells overexpressing human TLR8, stimulated with R848 15.9 μM; read-out: TLR 8 IC50
T3 construct: host or cells: HEK-Blue cells (HEK293-derived reporter line)
T3 sequence (Q9NR97 27-1041): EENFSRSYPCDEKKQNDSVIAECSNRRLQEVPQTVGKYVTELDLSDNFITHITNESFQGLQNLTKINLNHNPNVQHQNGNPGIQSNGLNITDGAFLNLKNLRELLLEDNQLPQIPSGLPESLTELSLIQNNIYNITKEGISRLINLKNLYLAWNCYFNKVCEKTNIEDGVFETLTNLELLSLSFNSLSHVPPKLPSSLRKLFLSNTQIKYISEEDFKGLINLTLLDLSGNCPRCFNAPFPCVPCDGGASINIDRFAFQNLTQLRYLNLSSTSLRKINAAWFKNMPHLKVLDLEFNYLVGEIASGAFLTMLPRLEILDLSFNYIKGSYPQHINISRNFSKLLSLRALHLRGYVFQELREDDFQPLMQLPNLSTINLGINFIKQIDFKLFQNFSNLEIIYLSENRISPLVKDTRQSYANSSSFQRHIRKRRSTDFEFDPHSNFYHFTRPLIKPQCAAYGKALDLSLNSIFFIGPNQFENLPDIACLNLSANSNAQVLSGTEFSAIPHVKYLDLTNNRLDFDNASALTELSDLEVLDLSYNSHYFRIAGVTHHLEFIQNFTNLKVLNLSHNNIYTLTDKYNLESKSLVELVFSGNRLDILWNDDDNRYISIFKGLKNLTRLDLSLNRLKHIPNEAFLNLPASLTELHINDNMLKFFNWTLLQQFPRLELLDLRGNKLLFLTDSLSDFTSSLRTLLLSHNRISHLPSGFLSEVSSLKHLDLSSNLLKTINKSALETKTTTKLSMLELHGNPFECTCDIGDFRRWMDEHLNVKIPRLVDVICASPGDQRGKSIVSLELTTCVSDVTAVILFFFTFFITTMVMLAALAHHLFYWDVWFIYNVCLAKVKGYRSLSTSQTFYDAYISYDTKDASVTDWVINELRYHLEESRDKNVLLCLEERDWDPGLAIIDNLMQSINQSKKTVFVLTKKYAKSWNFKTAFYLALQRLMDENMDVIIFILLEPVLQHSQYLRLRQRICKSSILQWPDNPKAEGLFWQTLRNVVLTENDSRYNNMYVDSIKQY
Experimental: as §1, §2

[1] = HEK-Blue cells overexpressing human TLR9, stimulated with ODN2006 5 nM, read-out: TLR 9 IC50
[2] = HEK-Blue human TLR9 reporter cells
[3] = HEK-Blue cells overexpressing human TLR9, stimulated with ODN2006 5 nM, 22 hour incubation, reporter readout

pIC50 (human TLR9; [1])	pIC50 (human TLR9; [2])	pIC50 (human TLR7)	pIC50 (human TLR8)	pIC50 (human TLR9; [3])	Structure (SMILES)
7.91	6.92	4.97	< 4.30	–	Cc1cc(C2CCN(C3CC4CCC(C3)N4C(C)C)CC2)cc2c1nc(-c1ccc(S(C)(=O)=O)c(F)c1)n2C (centres unmarked) [Example 344, 2-(3-fluoro-4-(methylsulfonyl)phenyl)-6-(1-(8-isopropyl-8-azabicyclo[3.2.1]octan-3-yl)piperidin-4-yl)-1,4-dimethyl-1H-benzo[d]imidazole]
5.73	–	< 4.30	5.27	5.72	Cc1cc(-c2ccc(CN3CCN(C(C)C)CC3)cc2)cc2c1nc(-c1ccc(S(C)(=O)=O)cc1)n2C [Example 413, 6-(4-((4-isopropylpiperazin-1-yl)methyl)phenyl)-1,4-dimethyl-2-(4-(methylsulfonyl)phenyl)-1H-benzo[d]imidazole]
7.55	7.55	5.92	< 4.30	–	CS(=O)(=O)c1ccc(-c2nc3c(F)cc(C4CCN(C5CC6CCC(C5)N6C5CCOCC5)CC4)cc3n2C2CC2)cc1 (centres unmarked) [Example 329, 1-cyclopropyl-4-fluoro-2-(4-(methylsulfonyl)phenyl)-6-(1-(8-(tetrahydro-2H-pyran-4-yl)-8-azabicyclo[3.2.1]octan-3-yl)piperidin-4-yl)-1H-benzo[d]imidazole]
7.70	–	4.96	< 4.30	7.70	COc1ccc(-c2nc3c(C)cc(C4CCN(C5CCN(C(C)C)CC5)CC4)cc3n2C)cc1OC [Example 45, 2-(3,4-dimethoxyphenyl)-6-(1′-isopropyl-[1,4′-bipiperidin]-4-yl)-1,4-dimethyl-1H-benzo[d]imidazole]
7.89	–	5.14	< 4.30	7.89	COc1ccc(-c2nc3c(C)cc(C4CCN(C5CC6(C5)CN(CC(C)C)C6)CC4)cc3n2C)cc1OC [Example 47, 2-(3,4-dimethoxyphenyl)-6-(1-(2-isobutyl-2-azaspiro[3.3]heptan-6-yl)piperidin-4-yl)-1,4-dimethyl-1H-benzo[d]imidazole tris(2,2,2-trifluoroacetate)]
6.95	6.96	5.70	4.74	–	CS(=O)(=O)c1ccc(-c2nc3c(F)cc(C4CCN(C5CC6CCC(C5)N6C5CCC5)CC4)cc3n2C2CC2)cc1 (single isomer, unassigned) [Example 327, 6-(1-(8-cyclobutyl-8-azabicyclo[3.2.1]octan-3-yl)piperidin-4-yl)-1-cyclopropyl-4-fluoro-2-(4-(methylsulfonyl)phenyl)-1H-benzo[d]imidazole]
6.98	–	< 4.30	< 4.30	6.96	CC(C)N1C2CCC1CC(N1CCC(c3cc(F)c4c(c3)nc(-c3ccc(S(C)(=O)=O)cc3)n4C)CC1)C2 (single isomer, unassigned) [Example 92, 7-fluoro-5-(1-(8-isopropyl-8-azabicyclo[3.2.1]octan-3-yl)piperidin-4-yl)-1-methyl-2-(4-(methylsulfonyl)phenyl)-1H-benzo[d]imidazole]
8.09	8.09	7.00	5.55	–	COc1cc(-c2nc3c(C)cc(C4CCN(C5CC6CCC(C5)N6CC5CC5)CC4)cc3n2C)cn2ncnc12 (centres unmarked) [Example 358, 6-(6-(1-(8-(cyclopropylmethyl)-8-azabicyclo[3.2.1]octan-3-yl)piperidin-4-yl)-1,4-dimethyl-1H-benzo[d]imidazol-2-yl)-8-methoxy-[1,2,4]triazolo[1,5-a]pyridine]
–	–	5.46	< 4.30	7.29	CC(C)N1C2CCC1CC(N1CCC(c3cc(F)c4nc(-c5ccc(S(C)(=O)=O)cc5)n(C5CC5)c4c3)CC1)C2 (single isomer, unassigned) [Example 116, 1-cyclopropyl-4-fluoro-6-(1-(8-isopropyl-8-azabicyclo[3.2.1]octan-3-yl)piperidin-4-yl)-2-(4-(methylsulfonyl)phenyl)-1H-benzo[d]imidazole]

Source: patent publication US12492188B2, “1H-benzo[D]imidazole derivatives as TLR9 inhibitors for the treatment of fibrosis” (BRISTOL-MYERS SQUIBB COMPANY, priority 2020, dated 2025)
